What was measured:
[1] = test system: Uveal melanoma cell lines, 92-1 or MP41; experiment: Comparison with clinical PKC and MEK inhibitors in uveal melanoma cell lines (Cell-titer glo, 3 days); type: cell-based; settings: FIG. 2, vs LXS196 and Selumetinib
[2] = test system: uveal melanoma and hematologic cancer cell lines; settings: FIG. 1; 0 to 10 micromolar; uveal melanoma and hematologic cancer cell lines vs other tested cell lines
[3] = target: BRM (Homo sapiens, UniProt P51531); experiment: ATPase catalytic activity of BRM (ADP-Glo in vitro biochemical assay); settings: for BRM Max % Inhibition: Table 6
Chain of BRM (P51531 whole entry): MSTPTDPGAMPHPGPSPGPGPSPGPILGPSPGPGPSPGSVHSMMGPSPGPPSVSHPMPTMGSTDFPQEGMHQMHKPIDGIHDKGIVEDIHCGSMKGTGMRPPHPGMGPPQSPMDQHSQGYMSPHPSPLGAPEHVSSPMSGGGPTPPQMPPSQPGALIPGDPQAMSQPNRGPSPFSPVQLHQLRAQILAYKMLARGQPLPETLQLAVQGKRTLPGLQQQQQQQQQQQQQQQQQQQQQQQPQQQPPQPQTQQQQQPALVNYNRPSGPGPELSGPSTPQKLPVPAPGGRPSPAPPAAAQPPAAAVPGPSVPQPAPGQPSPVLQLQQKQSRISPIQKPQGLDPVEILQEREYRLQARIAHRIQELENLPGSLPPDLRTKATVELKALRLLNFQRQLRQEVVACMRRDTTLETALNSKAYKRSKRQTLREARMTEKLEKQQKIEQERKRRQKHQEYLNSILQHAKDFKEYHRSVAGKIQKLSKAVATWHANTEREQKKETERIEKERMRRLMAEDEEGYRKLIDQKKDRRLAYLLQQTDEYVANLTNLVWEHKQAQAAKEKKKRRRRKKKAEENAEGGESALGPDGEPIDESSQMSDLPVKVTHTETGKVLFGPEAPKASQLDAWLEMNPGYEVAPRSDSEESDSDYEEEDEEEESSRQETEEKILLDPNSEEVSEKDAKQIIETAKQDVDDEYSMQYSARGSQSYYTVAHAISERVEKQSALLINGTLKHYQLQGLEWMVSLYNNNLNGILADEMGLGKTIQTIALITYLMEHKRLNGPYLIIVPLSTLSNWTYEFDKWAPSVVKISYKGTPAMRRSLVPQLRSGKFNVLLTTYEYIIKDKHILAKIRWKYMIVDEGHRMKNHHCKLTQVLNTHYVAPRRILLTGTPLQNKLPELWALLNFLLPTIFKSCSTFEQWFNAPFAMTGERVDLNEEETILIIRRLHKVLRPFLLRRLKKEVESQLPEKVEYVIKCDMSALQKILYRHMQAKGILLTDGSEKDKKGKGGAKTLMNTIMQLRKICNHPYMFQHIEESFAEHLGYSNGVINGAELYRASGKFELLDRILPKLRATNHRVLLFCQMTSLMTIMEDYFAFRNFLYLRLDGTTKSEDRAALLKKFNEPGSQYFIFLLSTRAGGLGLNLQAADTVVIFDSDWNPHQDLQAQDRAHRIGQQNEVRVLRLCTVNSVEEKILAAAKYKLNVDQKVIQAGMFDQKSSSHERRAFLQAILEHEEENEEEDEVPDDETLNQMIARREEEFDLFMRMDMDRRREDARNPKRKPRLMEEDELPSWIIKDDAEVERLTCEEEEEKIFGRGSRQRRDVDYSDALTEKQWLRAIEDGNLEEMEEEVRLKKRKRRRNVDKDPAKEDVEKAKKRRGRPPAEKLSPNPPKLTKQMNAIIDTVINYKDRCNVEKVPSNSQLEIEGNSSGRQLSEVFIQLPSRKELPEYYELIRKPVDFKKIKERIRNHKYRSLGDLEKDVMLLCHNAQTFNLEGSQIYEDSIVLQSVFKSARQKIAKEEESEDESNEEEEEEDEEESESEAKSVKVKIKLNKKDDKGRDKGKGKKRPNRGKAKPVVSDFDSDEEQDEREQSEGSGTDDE

[4] = target: BRG-1 (Homo sapiens, UniProt P51532); experiment: ATPase catalytic activity of BRG-1 (ADP-Glo in vitro biochemical assay); settings: for BRG1 Max % Inhibition: Table 6
Chain of BRG-1 (P51532 whole entry): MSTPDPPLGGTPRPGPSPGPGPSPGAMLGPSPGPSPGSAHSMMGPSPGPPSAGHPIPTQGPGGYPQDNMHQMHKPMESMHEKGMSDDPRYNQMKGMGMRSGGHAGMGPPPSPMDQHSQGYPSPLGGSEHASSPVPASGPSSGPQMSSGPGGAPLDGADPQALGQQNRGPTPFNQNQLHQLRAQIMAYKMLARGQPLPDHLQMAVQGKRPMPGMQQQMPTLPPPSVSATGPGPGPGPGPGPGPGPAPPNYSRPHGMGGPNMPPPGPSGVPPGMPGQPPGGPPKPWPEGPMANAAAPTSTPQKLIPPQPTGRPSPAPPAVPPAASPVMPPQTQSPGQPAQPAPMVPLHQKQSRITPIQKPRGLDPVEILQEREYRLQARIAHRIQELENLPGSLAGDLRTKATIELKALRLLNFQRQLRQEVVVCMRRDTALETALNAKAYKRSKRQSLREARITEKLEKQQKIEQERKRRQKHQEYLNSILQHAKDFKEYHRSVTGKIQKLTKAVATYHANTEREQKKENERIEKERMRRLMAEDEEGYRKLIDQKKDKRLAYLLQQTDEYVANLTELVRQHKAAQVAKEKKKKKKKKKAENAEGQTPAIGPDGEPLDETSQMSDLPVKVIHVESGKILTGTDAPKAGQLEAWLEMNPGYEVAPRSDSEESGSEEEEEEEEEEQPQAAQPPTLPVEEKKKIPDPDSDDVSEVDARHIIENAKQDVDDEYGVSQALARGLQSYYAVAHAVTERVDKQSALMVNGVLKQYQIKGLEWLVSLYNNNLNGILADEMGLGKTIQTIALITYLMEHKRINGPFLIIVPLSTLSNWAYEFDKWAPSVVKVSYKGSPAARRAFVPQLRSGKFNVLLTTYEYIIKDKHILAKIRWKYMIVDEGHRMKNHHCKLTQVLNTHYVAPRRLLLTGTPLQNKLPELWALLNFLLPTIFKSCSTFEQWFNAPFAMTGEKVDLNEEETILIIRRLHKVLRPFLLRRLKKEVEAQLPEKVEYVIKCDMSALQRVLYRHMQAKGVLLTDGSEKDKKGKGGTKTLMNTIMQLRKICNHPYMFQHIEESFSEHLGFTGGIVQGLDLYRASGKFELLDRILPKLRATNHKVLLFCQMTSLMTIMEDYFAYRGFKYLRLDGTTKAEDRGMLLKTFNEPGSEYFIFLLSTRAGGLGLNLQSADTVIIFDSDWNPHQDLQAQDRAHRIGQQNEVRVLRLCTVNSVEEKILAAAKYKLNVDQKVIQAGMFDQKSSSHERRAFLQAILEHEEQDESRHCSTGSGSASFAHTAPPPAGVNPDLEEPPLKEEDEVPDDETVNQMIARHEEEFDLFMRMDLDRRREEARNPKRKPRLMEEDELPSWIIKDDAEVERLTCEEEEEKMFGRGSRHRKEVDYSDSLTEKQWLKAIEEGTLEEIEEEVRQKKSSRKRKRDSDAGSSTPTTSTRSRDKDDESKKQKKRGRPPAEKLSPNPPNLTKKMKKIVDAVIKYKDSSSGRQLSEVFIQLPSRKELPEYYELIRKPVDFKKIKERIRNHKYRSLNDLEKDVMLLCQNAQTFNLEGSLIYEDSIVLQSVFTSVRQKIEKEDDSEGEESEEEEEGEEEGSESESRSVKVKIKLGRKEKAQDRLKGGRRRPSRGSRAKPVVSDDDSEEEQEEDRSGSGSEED

IC50 [3] [nM] | BRM Max % Inhibition [3] [%] | IC50 [4] [nM] | BRG1 Max % Inhibition [4] [%] | SMILES | growth inhibition of uveal melanoma cells ([1]; 0 to 10 micromolar, 3 days) | onset of inhibition [1] | sensitivity of cell lines to growth inhibition (GI50) [2]
< 100 | >95 | < 100 | >95 | CNC(=O)C(C)(C)n1ccc(-c2cccc(-c3csc(NC(=O)CNC(=O)c4ccc(N)cc4)n3)c2)n1 [Compound 213, 4-amino-N-[2-[[4-[3-[1-[1,1-dimethyl-2-(methylamino)-2-oxo-ethyl]pyrazol-3-yl]phenyl]thiazol-2-yl]amino]-2-oxo-ethyl]benzamide] |  |  | 
100 to 1000 | >90 | 100 to 1000 | >90 | Cn1ncc2ccc(-c3csc(NC(=O)CNC(=O)c4ccc(N)cc4)n3)cc21 [Compound 228, 4-amino-N-[2-[[4-(1-methylindazol-6-yl)thiazol-2-yl]amino]-2-oxo-ethyl]benzamide] |  |  | 
100 to 1000 | >95 | 100 to 1000 | >90 | Nc1ccc(C(=O)N[C@@H](CO)C(=O)Nc2nc(-c3cccc(-c4ccncc4)c3)cs2)cc1 [Compound 172, (S)-4-amino-N-(3-hydroxy-1-oxo-1-((4-(3-(pyridin-4-yl)phenyl)thiazol-2-yl)amino)propan-2-yl)benzamide] |  |  | 

The next lines start with the compound.

SMILES | IC50 [3] [nM] | BRM Max % Inhibition [3] [%] | IC50 [4] [nM] | BRG1 Max % Inhibition [4] [%] | growth inhibition of uveal melanoma cells ([1]; 0 to 10 micromolar, 3 days) | onset of inhibition [1] | sensitivity of cell lines to growth inhibition (GI50) [2]
CSCC[C@H](NC(=O)c1ccc(N)cc1)C(=O)Nc1nc(-c2cccc(-c3ccncc3)c2)cs1 [Compound 87, (S)-4-amino-N-(4-(methylthio)-1-oxo-1-((4-(3-(pyridin-4-yl)phenyl)thiazol-2-yl)amino)butan-2-yl)benzamide] |  |  |  |  | comparable growth inhibition of uveal melanoma cells as the clinical PKC and MEK inhibitors | faster onset of inhibition than the clinical PKC and MEK inhibitors | more sensitive to BRG1/BRM inhibition than the other tested cell lines
Cn1cnc2ccc(-c3csc(NC(=O)CNC(=O)c4cccc(S(C)(=O)=O)c4)n3)cc2c1=O [Compound 93, N-(2-((4-(3-methyl-4-oxo-3,4-dihydroquinazolin-6-yl)thiazol-2-yl)amino)-2-oxoethyl)-3-(methylsulfonyl)benzamide] | 100 to 1000 | >90 | 100 to 1000 | >90 |  |  | 
CSCC[C@H](NC(=O)c1ccc(N)cc1)C(=O)Nc1nc(-c2cccc(CNC(C)=O)c2)cs1 [Compound 120, (S)-N-(1-((4-(3-(acetamidomethyl)phenyl)thiazol-2-yl)amino)-4-(methylthio)-1-oxobutan-2-yl)-4-aminobenzamide] | 100 to 1000 | >90 | 100 to 1000 | >90 |  |  | 

From patent US11497752B2, “Compounds and uses thereof” (Foghorn Therapeutics Inc., priority 2018, dated 2022)
